Results taken from patent US20200165291A1, “NEUROACTIVE STEROIDS, COMPOSITIONS, AND USES THEREOF” (Sage Therapeutics, Inc., priority 2014, published 2020).
Read-outs that look alike come from different tables or passages of the source.

Key:
[1] = molecular target: [35S]-TBPS binding, rat brain cortical membranes (GABA receptor complex); experiment: [35S]-TBPS binding (steroid inhibition of TBPS binding); settings: in the presence of 5 μM GABA, read-out: 35S-TBPS Radioligand Displacement
Protocol: [35S]-t-Butylbicyclophosphorothionate (TBPS) binding assays using rat brain cortical membranes in the presence of 5 μM GABA has been described (Gee et al, J. Pharmacol. Exp. Ther. 1987, 241, 346-353; Hawkinson et al, Mol. Pharmacol. 1994, 46, 977-985; Lewin, A. H et al., Mol. Pharmacol. 1989, 35, 189-194).
Briefly, cortices are rapidly removed following decapitation of carbon dioxide-anesthetized Sprague-Dawley rats (200-250 g). The cortices are homogenized in 10 volumes of ice-cold 0.32 M sucrose using a glass/teflon homogenizer and centrifuged at 1500×g for 10 min at 4° C. The resultant supernatants are centrifuged at 10,000×g for 20 min at 4° C. to obtain the P2 pellets. The P2 pellets are resuspended in 200 mM NaCl/50 mM Na-K phosphate pH 7.4 buffer and centrifuged at 10,000×g for 10 min at 4° C. This washing procedure is repeated twice and the pellets are resuspended in 10 volumes of buffer. Aliquots (100 μL) of the membrane suspensions are incubated with 3 nM [^35S]-TBPS and 5 μL aliquots of test drug dissolved in dimethyl sulfoxide (DMSO) (final 0.5%) in the presence of 5 μM GABA. The incubation is brought to a final volume of 1.0 mL with buffer. Nonspecific binding is determined in the presence of 2 μM unlabeled TBPS and ranged from 15 to 25%. Following a 90 min incubation at room temp, the assays are terminated by filtration through glass fiber filters (Schleicher and Schuell No. 32) using a cell harvester (Brandel) and rinsed three times with ice-cold buffer. Filter bound radioactivity is measured by liquid scintillation spectrometry. Non-linear curve fitting of the overall data for each drug averaged for each concentration is done using Prism (GraphPad). […] The concentration of test compound producing 50% inhibition (IC50) of specific binding and the maximal extent of inhibition (Imax) are determined for the individual experiments with the same model used for the overall data and then the means±SEM.s of the individual experiments are calculated.
Various compounds are or can be screened to determine their potential as modulators of [^35S]-TBPS binding in vitro. These assays are or can be performed in accordance with the above discussed procedures.

[2] = molecular target: T1, recombinant α4β3δ GABAA receptors (Homo sapiens, UniProt P28472+P48169); experiment: Patch clamp electrophysiology, manual patch, CHO cells; format: cell-based; settings: 10 μM test article, GABA EC20 = 2 μM, read-out: GABA (α4β3δ) Manual patch in CHO, % efficacy at 10 μM
T1 construct: expressed in transfected cells; host or cells: CHO cells (transient transfection, Lipofectamine)
T1 sequence (P48169 36-554): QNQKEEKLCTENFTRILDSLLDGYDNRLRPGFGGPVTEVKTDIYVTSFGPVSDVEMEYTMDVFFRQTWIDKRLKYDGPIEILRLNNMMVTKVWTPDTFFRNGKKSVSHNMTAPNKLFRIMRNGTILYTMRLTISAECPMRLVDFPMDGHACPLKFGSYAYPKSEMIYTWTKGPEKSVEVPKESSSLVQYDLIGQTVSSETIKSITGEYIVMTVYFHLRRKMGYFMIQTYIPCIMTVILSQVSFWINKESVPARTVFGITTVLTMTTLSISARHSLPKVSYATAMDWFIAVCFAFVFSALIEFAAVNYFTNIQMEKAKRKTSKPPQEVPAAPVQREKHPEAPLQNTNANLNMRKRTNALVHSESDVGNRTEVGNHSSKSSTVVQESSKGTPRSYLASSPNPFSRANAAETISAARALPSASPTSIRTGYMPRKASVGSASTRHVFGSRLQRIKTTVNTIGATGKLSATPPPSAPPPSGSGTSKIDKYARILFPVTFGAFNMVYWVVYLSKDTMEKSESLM
T1 sequence (P28472 26-473): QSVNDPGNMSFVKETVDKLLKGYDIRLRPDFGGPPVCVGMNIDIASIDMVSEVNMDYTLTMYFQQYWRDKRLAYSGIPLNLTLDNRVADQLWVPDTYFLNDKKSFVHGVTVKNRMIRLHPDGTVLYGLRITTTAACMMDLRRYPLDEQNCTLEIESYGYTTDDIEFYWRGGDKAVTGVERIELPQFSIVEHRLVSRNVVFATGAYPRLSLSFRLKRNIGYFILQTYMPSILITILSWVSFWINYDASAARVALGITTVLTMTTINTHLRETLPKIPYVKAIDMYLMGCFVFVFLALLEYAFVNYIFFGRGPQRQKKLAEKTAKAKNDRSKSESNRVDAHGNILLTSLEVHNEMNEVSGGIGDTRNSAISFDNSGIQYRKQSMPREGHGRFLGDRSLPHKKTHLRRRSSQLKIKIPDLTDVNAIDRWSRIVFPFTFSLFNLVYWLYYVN
T1 sequence (O14764 17-452 partner limits assumed): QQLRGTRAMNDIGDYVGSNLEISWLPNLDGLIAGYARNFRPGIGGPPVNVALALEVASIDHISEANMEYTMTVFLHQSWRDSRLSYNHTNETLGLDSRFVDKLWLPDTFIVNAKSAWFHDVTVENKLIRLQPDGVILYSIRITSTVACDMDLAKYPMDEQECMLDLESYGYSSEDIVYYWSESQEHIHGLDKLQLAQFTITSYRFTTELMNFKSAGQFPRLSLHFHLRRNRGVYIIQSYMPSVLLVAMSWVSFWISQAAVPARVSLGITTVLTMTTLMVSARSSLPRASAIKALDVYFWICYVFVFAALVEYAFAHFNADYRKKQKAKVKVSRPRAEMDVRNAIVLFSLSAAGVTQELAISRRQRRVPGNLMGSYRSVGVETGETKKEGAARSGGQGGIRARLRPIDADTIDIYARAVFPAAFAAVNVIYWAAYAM

[3] = molecular target: T2, recombinant α1β2γ2 GABAA receptors (Homo sapiens, UniProt P14867+P47870); experiment: Patch clamp electrophysiology, QPatch, LTK cells; format: cell-based; settings: 10 μM test article, GABA EC20 = 2 μM, read-out: GABA (α1β2γ2) Qpatch in Ltk, % efficacy at 10 μM
T2 construct: expressed in transfected cells
T2 sequence (P14867 28-456): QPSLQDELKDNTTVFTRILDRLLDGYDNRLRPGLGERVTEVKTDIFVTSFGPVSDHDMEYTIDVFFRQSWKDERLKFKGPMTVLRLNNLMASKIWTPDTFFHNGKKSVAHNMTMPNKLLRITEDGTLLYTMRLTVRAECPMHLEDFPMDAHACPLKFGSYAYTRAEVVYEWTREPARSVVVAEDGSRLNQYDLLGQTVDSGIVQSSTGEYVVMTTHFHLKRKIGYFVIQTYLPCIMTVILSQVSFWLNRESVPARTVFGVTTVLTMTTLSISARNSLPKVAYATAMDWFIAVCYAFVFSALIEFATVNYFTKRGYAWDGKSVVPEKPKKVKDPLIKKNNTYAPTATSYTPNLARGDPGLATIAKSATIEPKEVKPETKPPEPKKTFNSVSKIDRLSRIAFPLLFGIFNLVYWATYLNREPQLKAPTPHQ
T2 sequence (P47870 25-512 limits assumed): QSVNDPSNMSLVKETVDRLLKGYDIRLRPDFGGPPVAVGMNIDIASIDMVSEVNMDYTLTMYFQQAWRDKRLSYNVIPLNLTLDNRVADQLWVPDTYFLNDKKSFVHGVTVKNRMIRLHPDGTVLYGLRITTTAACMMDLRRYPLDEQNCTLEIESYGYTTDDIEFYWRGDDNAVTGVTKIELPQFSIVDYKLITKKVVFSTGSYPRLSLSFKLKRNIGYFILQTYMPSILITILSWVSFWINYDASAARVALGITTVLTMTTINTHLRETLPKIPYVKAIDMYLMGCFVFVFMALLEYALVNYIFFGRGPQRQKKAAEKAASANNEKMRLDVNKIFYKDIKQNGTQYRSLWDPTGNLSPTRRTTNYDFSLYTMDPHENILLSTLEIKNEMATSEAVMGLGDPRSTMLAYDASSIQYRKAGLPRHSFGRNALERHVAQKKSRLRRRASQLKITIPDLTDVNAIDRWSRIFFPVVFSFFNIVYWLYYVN
T2 sequence (P18507 40-475 partner): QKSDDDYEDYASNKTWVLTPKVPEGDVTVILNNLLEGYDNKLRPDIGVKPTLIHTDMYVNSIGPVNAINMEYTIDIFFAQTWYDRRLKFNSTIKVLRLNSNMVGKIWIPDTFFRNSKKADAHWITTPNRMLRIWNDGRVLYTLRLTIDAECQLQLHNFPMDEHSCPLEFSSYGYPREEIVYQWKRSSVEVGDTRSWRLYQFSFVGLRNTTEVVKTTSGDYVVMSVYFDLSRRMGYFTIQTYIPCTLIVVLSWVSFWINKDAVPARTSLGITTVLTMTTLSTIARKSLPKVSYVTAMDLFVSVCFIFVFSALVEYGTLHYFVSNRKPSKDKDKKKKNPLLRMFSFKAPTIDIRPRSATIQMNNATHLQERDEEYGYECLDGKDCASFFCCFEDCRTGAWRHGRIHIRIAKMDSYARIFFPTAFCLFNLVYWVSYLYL

[4] = system: male Sprague Dawley rats; experiment: Loss of righting reflex in rats; format: in vivo; settings: Rat IV, 5 mpk
Protocol: Loss of Righting Reflex in Rats
The plasma pharmacokinetics and a qualitative assessment of sedation were obtained in male Sprague Dawley rats according to the following procedure. Rats were dosed by intravenous bolus dose (60 seconds) via the foot dorsal vein at doses ranging from 5 to 15 mg/kg in an appropriate vehicle. In order to assess sedation, rats were gently restrained by hand to a lateral position for dose administration. […] If the animal was unable to return to an upright position, the time was recorded as the onset of loss of righting reflex (LRR). […] Sluggish or incomplete righting twice consecutively within a 30 second interval qualifies as a loss of righting reflex. After onset of LRR, animals were assessed every 5 minutes in the same manner. Recovery of righting reflex is defined as the ability of a rat to right itself completely within 20 seconds of being placed in dorsal recumbency. The duration of LRR is defined as the time interval between LRR and the return of righting reflex.

[5] = system: PTZ-treated male CD-1 mice; experiment: Acute PTZ (pentylenetetrazol-induced seizure) method in mice; format: in vivo; settings: Mus musculus, latency to tonic seizures, read-out: Anticonvulsive Effect Dose (minimal effective anticonvulsant dose)
Protocol: The anticonvulsant effect of test compounds were assessed in the pentylenetetazol-induced seizure assay in mice similar to methods described in Giardina & Gasior (2009) Curr Protoc Pharmacol., Chapter 5. Male CD-1 mice were housed in groups of five under controlled conditions (temperature of 22±2° C. and 12:12 light-dark cycle, lights on at 8:00 am) and water and food were available ad libitum. The mice were housed for 1 week prior to behavioral testing, at which time they weighed 25-35 g. Pentylenetetrazol (PTZ, Sigma) was dissolved in sterile 0.9% saline at a concentration of 12 mg/mL concentration for subcutaneous administration. Test compounds were formulated and administered via oral gavage or intraperitoneal injection at a predetermined time-point (typically 30 or 60 minutes) prior to PTZ injection. All solutions were made fresh and were given in a volume of 10 ml/kg body weight.
Mice were acclimated to the test room for at least 30 min before compound administration. Mice were randomized into at least four test groups (vehicle and at least three doses of the test compound) with 10 mice per group. […] Following the drug pretreatment time the mice were injected s.c. with PTZ (120 mg/kg). Immediately following the PTZ injection, mice were individually placed into observation chambers (25×15×15 cm) and a three-channel timer was started. Each mouse was continuously observed for 30 min and the following behaviors were recorded by observers blinded to the treatments: 1) latency to clonic convulsions that persist for 3 sec and followed by an absence of righting reflex 2) latency to tonic convulsions, characterized by the rigid extension of all four limbs that exceeded a 90 degree angle with the body 3) latency to death 4) number of clonic and tonic convulsions. Data are presented as mean±S.E.M and one-way analysis of variance with Dunnett's or Bonferroni's post-hoc test was used to detect significant differences in latency and number between the vehicle and dose group. p values<0.05 were regarded as statistically significant.

SMILES | IC50 [1] [nM] | Emax at 10 µM [2] [%] | Emax at 10 µM [3] [%] | Duration of Rat LRR [4] | minimal effective dose ([5]; PO (oral administration)) [mg/kg] | minimal effective dose ([5]; IP (intraperitoneal injection)) [mg/kg] | Emax at 10 µM ([3]; in cremophor) [%] | Emax at 10 µM ([2]; in cremophor) [%]
C[C@@]1(O)CC[C@H]2[C@@H](CC[C@@H]3[C@@H]2CC[C@]2(C)[C@@H](C(=O)Cn4cncn4)CC[C@@H]32)C1 [SB-1] | 100 to 500 | > 500 | – | – | – | – | – | –
Cc1cnn(CC(=O)[C@H]2CC[C@H]3[C@@H]4CC[C@@H]5C[C@](C)(O)CC[C@@H]5[C@H]4CC[C@]23C)n1 [SA-3] | 1 to 50 | > 500 | 100 to 500 | B (B > 20 min) | – | – | – | –
C[C@@]1(O)CC[C@@H]2[C@H]3CC[C@]4(C)[C@@H](C(=O)Cn5ncnn5)CC[C@H]4[C@@H]3C[C@@H](F)[C@H]2C1 [SV-3] | – | > 500 | 100 to 500 | A (A ≤ 20 min) | – | – | – | –
CO[C@H]1C[C@H]2[C@@H](CC[C@@H]3[C@@H]2CC[C@]2(C)[C@@H](C(=O)Cn4nccn4)CC[C@@H]32)C[C@]1(C)O [SU-2] | 50 to 100 | > 500 | 100 to 500 | – | – | – | – | –
Cc1nnnn1CC(=O)[C@H]1CC[C@H]2[C@@H]3CC[C@@H]4C[C@@](O)(CF)CC[C@@H]4[C@H]3CC[C@]12C [SF-2] | – | > 500 | 100 to 500 | – | – | – | – | –
C[C@]12CC[C@H]3[C@@H](CC[C@@H]4C[C@@](O)(C(F)F)CC[C@@H]43)[C@@H]1CC[C@@H]2C(=O)Cn1cnnn1 [SG-1] | – | 100 to 500 | 100 to 500 | – | – | – | – | –
Cc1nnnn1CC(=O)[C@H]1CC[C@H]2[C@@H]3CC[C@@H]4C[C@](C)(O)CC[C@@H]4[C@H]3CC[C@]12C [SA-6] | 1 to 50 | > 500 | 100 to 500 | – | 1 to 3 | – | – | –
COC[C@@]1(O)CC[C@H]2[C@@H](CC[C@@H]3[C@@H]2CC[C@]2(C)[C@@H](C(=O)Cn4nnnc4C)CC[C@@H]32)C1 [SI-3] | – | > 500 | 100 to 500 | – | ≤ 1 | – | – | –
COC[C@@]1(O)CC[C@H]2[C@@H](CC[C@@H]3[C@@H]2CC[C@]2(C)[C@@H](C(=O)Cn4cnnn4)CC[C@@H]32)C1 [SI-1] | 100 to 500 | > 500 | 100 to 500 | – | 1 to 3 | – | – | –
C[C@@]1(O)CC[C@H]2[C@H](CC[C@@H]3[C@@H]2CC[C@]2(C)[C@@H](C(=O)Cn4ccnn4)CC[C@@H]32)C1 [SA-9] | 1 to 50 | > 500 | 100 to 500 | – | – | 1 to 3 | – | –
C[C@@]1(O)CC[C@H]2[C@H](CC[C@@H]3[C@@H]2CC[C@]2(C)[C@@H](C(=O)Cn4ncc(C(N)=O)n4)CC[C@@H]32)C1 [SA-13] | – | – | – | – | – | – | 100 to 500 | > 500
Cc1nnnn1CC(=O)[C@H]1CC[C@H]2[C@@H]3CC[C@H]4C[C@](C)(O)CC[C@@H]4[C@H]3CC[C@]12C [SB-4] | – | > 500 | 100 to 500 | – | – | – | – | –
CO[C@@H]1C[C@@H]2[C@H](CC[C@]3(C)[C@@H](C(=O)Cn4ccnn4)CC[C@@H]23)[C@H]2CC[C@@](C)(O)C[C@@H]21 [SW-1] | > 500 | – | 100 to 500 | – | – | – | – | –
